This note sets out measurements from patent US10029993B2, “Disubstituted 1, 2, 4-triazine compound” (MITSUBISHI TANABE PHARMA CORPORATION, priority 2014, dated 2018).

The target of the test is human CYP11B2 (Homo sapiens (Human), UniProt P19099). In words: Inhibitory effect on hCYP11B2 (aldosterone production by mitochondrial fraction of V79 cells stably expressing human CYP11B2, HTRF). Format: biochemical. The note with it: 0.5 μmol/L deoxycorticosterone, 150 μmol/L NADPH, 1.5-2 hours at room temperature. How it is done: Experimental Example 1 (Inhibitory Effect on hCYP11B2)
human CYP11B2, sequence (P19099 25-503): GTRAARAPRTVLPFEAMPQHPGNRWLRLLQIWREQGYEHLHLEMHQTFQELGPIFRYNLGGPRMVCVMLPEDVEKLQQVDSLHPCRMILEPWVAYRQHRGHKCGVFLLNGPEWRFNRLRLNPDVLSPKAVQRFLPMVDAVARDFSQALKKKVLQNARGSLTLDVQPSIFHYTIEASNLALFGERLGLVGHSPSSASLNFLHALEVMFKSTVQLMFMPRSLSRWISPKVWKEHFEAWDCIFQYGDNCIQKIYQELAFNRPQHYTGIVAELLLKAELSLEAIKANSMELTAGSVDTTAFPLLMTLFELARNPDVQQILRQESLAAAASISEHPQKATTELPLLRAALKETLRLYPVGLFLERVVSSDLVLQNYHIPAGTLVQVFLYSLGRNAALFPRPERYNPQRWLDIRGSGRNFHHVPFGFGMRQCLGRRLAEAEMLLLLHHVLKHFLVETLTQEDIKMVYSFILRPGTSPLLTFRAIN
The pcDNA3.1-human CYP11B2 plasmid was transfected into a Chinese hamster lung fibroblast V79 cell line to produce a cell line stably expressing human CYP11B2 gene.
The cells were cultured and grown in the Dulbecco's modified Eagle's/Ham's medium supplemented with 10% fetal bovine serum and 1% G418 disulfate solution under the environment of 37° C., 95% air, and 5% CO2, and the grown cells were harvested.
Then, the cells were fractionated to obtain mitochondria by reference to a method described in Chabre et al. JCE 86 M 85 (11) 4060-68, 2000. In particular, the cells suspended in a 5 mmol/L Tris-HCl buffer (pH 7.4) containing 250 mmol/L sucrose were homogenized in a Teflon (Registered Trademark) Potter Elvehjem homogenizer, and then the suspension was centrifuged (800×g, 15 min.). The supernatant was separated and again centrifuged (10000×g, 15 min.) to obtain a pellet (mitochondrial fraction).
The mitochondrial fraction diluted with a buffer containing 10 mmol/L KH2PO4, 10 mmol/L Tris, 20 mmol/L KCl, 25 mmol/L sucrose, 5 mmol/L MgCl2, and 0.05% bovine serum albumin was dispensed to a 96-well plate. 0.5 μmol/L Deoxycorticosterone, 150 μmol/L NADPH and a compound of each concentration were added to each well, and incubated for 1.5-2 hours at room temperature to produce aldosterone. An amount of the produced aldosterone in the incubated solution was determined by using HTRF (Homogeneous Time Resolved Fluorescence) method.
IC 50 (nmol/L) was calculated by analyzing the aldosterone production inhibition rate (%) of each concentration of compounds by non-linear regression to a logistic curve.
(TR-FRET usually uses a lanthanide donor and a delayed reading to cut background.)
The term IC50 denotes the concentration at which inhibition is half-maximal. `O=C(CN1CCN(c2nncc(-c3ccc(C(F)(F)F)cc3)n2)CC1)NC1CC2COCC(C1)C2O` (stereo not drawn) [Example 157a, 3-[4-[[(7-exo-9-endo)-9-hydroxy-3-oxabicyclo[3.3.1]nonan-7-yl]carbamoylmethyl]piperazin-1-yl]-5-(4-trifluoromethylphenyl)-1,2,4-triazine] showed an IC50 of 14 nM.
The compound `O=C(CN1CCN(c2nncc(-c3ccc(F)cc3)n2)CC1)N[C@H]1CC[C@H](N2CCOCC2)CC1` [Example 28] had an IC50 of 8.4 nM.
For the compound `CC(C)NC(=O)CN1CCN(c2nncc(-c3ccc4ncsc4c3)n2)CC1` [Example 220], the concentration for half-maximal inhibition (IC50) stood at 20 nM. Compared with the last compound, the IC50 is about 2.4-fold higher.
In turn, `CNC(=O)Cn1cc(NC(=O)CN2CCN(c3nncc(-c4ccc(Cl)cc4)n3)CC2)cn1` [Example 81] gave an IC50 of 2.7 nM.
`Clc1ccc(-c2cnnc(N3CCN(C4CCOCC4)CC3)n2)cc1` [Example 178] showed an IC50 of 5 nM. Against the preceding compound, the IC50 is about 1.9-fold higher.
Take `O=C(CN1CCN(c2nncc(-c3ccc(Cl)cc3)n2)CC1)NC1CCS(=O)(=O)CC1` [Example 27]: inhibition was half-maximal at 13 nM (IC50).
In turn, `CC(C)NC(=O)CN1CCN(c2nncc(-c3ccc(C(F)(F)F)cc3)n2)CC1` [Example 221] had an IC50 of 2.4 nM.
The compound `CN(CCCS(C)(=O)=O)c1nncc(-c2ccc3ccccc3c2)n1` [Example 192] registered an IC50 of 38 nM. Compared with the last compound, the IC50 is about 16-fold higher.
The compound `Cc1ccc(-c2cnnc(N3CCN(CC(=O)NC4CCN(CCNS(C)(=O)=O)CC4)CC3)n2)cc1` [Example 62] returned an IC50 of 10 nM.
The value for `Cc1ccccc1-c1cnnc(C2CCCN(c3ncccn3)C2)n1` (stereo not shown) [Example 244, 3-[1-(pyrimidine-2-yl)-piperidin-3-yl]-5-(o-tolyl)-1,2,4-triazine] was 11 nM.
